Here are results for one substance from article PMC7934871 (JCI Insight, 2021).

In this assay the test system is HCT116 xenograft tumors. Kind of assay: HCT116 xenograft in NSG mice, peritumoral treatment. The format is in vivo, mouse. The settings on record: HCT116 s.c. in NSG mice, 1 mg/kg peritumoral every day, n = 4. As to the method:
Mouse care and experimental procedures were performed under pathogen-free conditions in accordance with established institutional guidance and approved IACUC protocols from Research Animal Care Committee of the City of Hope. For s.c. tumor challenge, 5 × 10^6 HCT116 cells were injected into NSG mice from The Jackson Laboratory or animal resource core facility at the City of Hope. After tumors reached an average size of 80~100 mm^3, mice were locally or intravenously treated with 1 mg/kg of PO- or PS-peptides (Anaspec) every day or every other day. Control animals were treated with the equal volume of HBSS (Invitrogen, Thermo Fisher Scientific). Tumor growth was measured by a digital caliper every other day. […] Lungs were then analyzed for immune responses by immunostaining followed by confocal imaging. […] Tumor growth was measured by a digital caliper every other day. […]
(B) PS-acet.-STAT3 peptide downregulates STAT3 phosphorylation, assessed by Western blotting using tumor homogenates prepared from tumors shown in A.
(C) mRNA levels for CASP9, BIRC5 and BCL2L1 in the same tumor tissues described above were assessed by qRT-PCR. […]
(D) Treatments with PS-acet.-STAT3 peptide induced cell death, indicated by H&E staining (upper panel). […] Right panels represent quantification of Ki-67 protein levels and mean of vessel diameter (data include 5 fields of view per group). […]

For the substance “PDIPKEEAFGK685(Ac)YCRPESQEHPC-linker-T*C*C*A*T*G*A*G*C*T*T*C*C*T*G*A*T*G*C*T [PS-acet.-STAT3 peptide]”, the tumor growth result is on record as “antitumor effects”.
